# pIC50: −log10 of the molar value.
# Assays:
# [1] = tested on: HIV pseudotyped virus (NL4-3 provirus, luciferase reporter), M184V, in U373 cells expressing human CD4 and CXCR4 or CCR5; type: cell-based; settings: PSV assay, luciferase signal after 3 days
# [2] = tested on: HIV pseudotyped virus (NL4-3 provirus, luciferase reporter), WT, in U373 cells expressing human CD4 and CXCR4 or CCR5; test: Pseudotyped virus (PSV) assay, WT; settings: Human immunodeficiency virus 1, NL43, U373 MG, 72 h, read-out: WT IC50
# Text: A pseudotyped virus assay (PSV) was used to assess the potency of the HIV inhibitor. Replication defective virus was produced by co-transfection of a plasmid containing an NL4-3 provirus [containing a mutation in the envelope open reading frame (ORF) and a luciferase reporter gene replacing the nef ORF] and a CMV-promoter expression plasmid containing an ORF for various HIV gp160 envelope clones. The harvested virus was stored at −80 C in small aliquots and the titer of the virus measured to produce a robust signal for antiviral assays.
# The PSV assay was performed by using U373 cells stably transformed to express human CD4, the primary receptor for HIV entry and either human CXCR4 or human CCR5 which are the co-receptors required for HIV entry as target cells for infection. […] This dose-range was applied to U373 cells and the pre-made pseudotyped virus added. The amount of luciferase signal produced after 3 days of culture was used to reflect the level of pseudotyped virus infection. An IC50, or the concentration of inhibitor required to reduce PSV infection by 50% from the infection containing no inhibitor was calculated. […] IC50 values were determined from a 10 point dose response curve using 3-4-fold serial dilution for each compound, which spans a concentration range >1000 fold.
# These values are plotted against the molar compound concentrations using the standard four parameter logistic equation:
# y=((V max*x^n)/(K^n+x^n)+Y2
# Y2=minimum y n=slope factor
# Vmax=maximum y x=compound concentration [M]
SMILES,pIC50 [1],pIC50 [2]
"C#C[C@]1(CO)O[C@@H](n2cnc3c(N)nc(F)nc32)C[C@@H]1O [EFdA, 4′-ethynyl-2-fluoro-2′-deoxyadenosine, reference compound]",7.45,8.19
"C#C[C@]1(CO)O[C@@H](n2cnc3c(N)nc(F)nc32)C[C@@H]1OC(=O)CCCCCCCCCCCCC(=O)O [Example 3, 14-(((2R,3S,5R)-5-(6-amino-2-fluoro-9H-purin-9-yl)-2-ethynyl-2-(hydroxymethyl)tetrahydrofuran-3-yl)oxy)-14-oxotetradecanoic Acid]",7.61,8.27
"C#C[C@]1(CO)O[C@@H](n2cnc3c(N)nc(F)nc32)C[C@@H]1OC(=O)CNC(=O)CCCCCC [Example 6, (2R,3S,5R)-5-(6-amino-2-fluoro-9H-purin-9-yl)-2-ethynyl-2-(hydroxymethyl)tetrahydrofuran-3-yl heptanoylglycinate]",7.94,8.66
"C#C[C@]1(CO)O[C@@H](n2cnc3c(N)nc(F)nc32)C[C@@H]1OC(=O)CCCCCCCCCCCCCCCCCCC(=O)O [Example 2, 20-(((2R,3S,5R)-5-(6-amino-2-fluoro-9H-purin-9-yl)-2-ethynyl-2-(hydroxymethyl)tetrahydrofuran-3-yl)oxy)-20-oxoicosanoic Acid]",7.45,8.19
"C#C[C@]1(CO)O[C@@H](n2cnc3c(N)nc(F)nc32)C[C@@H]1OC(=O)CCCC(=O)OC(COC(=O)CCCCCC)COC(=O)CCCCCC [Example 7, (2R,3S,5R)-5-(6-amino-2-fluoro-9H-purin-9-yl)-2-ethynyl-2-(hydroxymethyl)tetrahydrofuran-3-yl (1,3-bis(heptanoyloxy)propan-2-yl) glutarate]",5.92,6.63
"C#C[C@]1(CO)O[C@@H](n2cnc3c(N)nc(F)nc32)C[C@@H]1OC(=O)COCCOC [Example 4, (2R,3S,5R)-5-(6-amino-2-fluoro-9H-purin-9-yl)-2-ethynyl-2-(hydroxymethyl)tetrahydrofuran-3-yl 2-(2-methoxyethoxy)acetate]",7.59,8.42
"C#C[C@]1(CO)O[C@@H](n2cnc3c(N)nc(F)nc32)C[C@@H]1OC(=O)COCCOCCOC [Example 5, (2R,3S,5R)-5-(6-amino-2-fluoro-9H-purin-9-yl)-2-ethynyl-2-(hydroxymethyl)tetrahydrofuran-3-yl 2-(2-(2-methoxyethoxy)ethoxy)acetate]",7.66,8.26
"C#C[C@]1(CO)O[C@@H](n2cnc3c(N)nc(F)nc32)C[C@@H]1OC(=O)CCCC(=O)OC(COC(=O)CCCCCCCCCCCCC)COC(=O)CCCCCCCCCCCCC [Example 8, (2R,3S,5R)-5-(6-amino-2-fluoro-9H-purin-9-yl)-2-ethynyl-2-(hydroxymethyl)tetrahydrofuran-3-yl (1,3-bis(tetradecanoyloxy)propan-2-yl) glutarate]",4.82,5.73
"C#C[C@]1(CO)O[C@@H](n2cnc3c(N)nc(F)nc32)C[C@@H]1OC(=O)CCCCCCCCC(=O)O [Example 1, 10-(((2R,3S,5R)-5-(6-amino-2-fluoro-9H-purin-9-yl)-2-ethynyl-2-(hydroxymethyl)tetrahydrofuran-3-yl)oxy)-10-oxodecanoic Acid]",6.46,7.11
